Measured values from ChEMBL document CHEMBL1201862, “PubChem BioAssay data set” (2004).
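Following 48 hours of exposure in 96-well plates, responses at five concentrations were used to interpolate endpoints linearly. GI50 is the concentration that inhibits growth by half.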 Calls of active or inactive are those of the source. Rule as the data show it: active = GI50 up to about 1.1 µM and inactive = higher.

Experiments:
Experiment in all cases: NCI tumour cell line growth inhibition, 48 h
OVCAR-8 = tested on: OVCAR-8
HT-29 = tested on: HT-29
RPMI-8226 = tested on: RPMI-8226
LOX IMVI = tested on: LOX IMVI
SN12C = tested on: SN12C
ACHN = tested on: ACHN
Malme-3M = tested on: Malme-3M
SK-MEL-28 = tested on: SK-MEL-28
TK-10 = tested on: TK-10
SF-539 = tested on: SF-539
SNB-19 = tested on: SNB-19
UACC-62 = tested on: UACC-62
DMS-114 = tested on: DMS-114
COLO 205 = tested on: COLO 205
KM12 = tested on: KM12
HCT-15 = tested on: HCT-15
DMS-273 = tested on: DMS-273
NCI-H522 = tested on: NCI-H522
SR = tested on: SR
OVCAR-4 = tested on: OVCAR-4
K562 = tested on: K562
MOLT-4 = tested on: MOLT-4
HOP-92 = tested on: HOP-92
UO-31 = tested on: UO-31
NCI-H23 = tested on: NCI-H23
IGROV-1 = tested on: IGROV-1
M14 = tested on: M14
OVCAR-3 = tested on: OVCAR-3
A498 = tested on: A498
U-251 = tested on: U-251
DLD-1 = tested on: DLD-1
SNB-75 = tested on: SNB-75
CAKI-1 = tested on: CAKI-1
HCT-116 = tested on: HCT-116
A549 = tested on: A549
HCC 2998 = tested on: HCC 2998
SK-MEL-2 = tested on: SK-MEL-2
HOP-62 = tested on: HOP-62
SK-OV-3 = tested on: SK-OV-3
SK-MEL-5 = tested on: SK-MEL-5
RXF 393 = tested on: RXF 393
KM-20L2 = tested on: KM-20L2
SW-620 = tested on: SW-620
HL-60 = tested on: HL-60
SF-295 = tested on: SF-295
SNB-78 = tested on: SNB-78
M19-MEL = tested on: M19-MEL
786-0 = tested on: 786-0
NCI-H460 = tested on: NCI-H460
CCRF-CEM = tested on: CCRF-CEM
OVCAR-5 = tested on: OVCAR-5
LXFL 529 = tested on: LXFL 529
NCI-H226 = tested on: NCI-H226
SF-268 = tested on: SF-268
XF498 = tested on: XF498
EKVX = tested on: EKVX
UACC-257 = tested on: UACC-257

## COc1cc2c(c(OC)c1OC)-c1ccc(SC)c(=O)cc1C(CC(=O)Oc1ccccc1F)C2 (configuration not stated)
OVCAR-8
  GI50: 0.0328 µM (active)
HT-29
  GI50: 0.00841 µM (active)
RPMI-8226
  GI50: < 0.0075 µM (active)
LOX IMVI
  GI50: < 0.0075 µM (active)
SN12C
  GI50: 0.0193 µM (active)
ACHN
  GI50: 0.0834 µM (active)
Malme-3M
  GI50: 0.0575 µM (active)
SK-MEL-28
  GI50: 0.055 µM (active)
TK-10
  GI50: > 7.5 µM (inactive)
SF-539
  GI50: < 0.0075 µM (active)
SNB-19
  GI50: 0.0139 µM (active)
UACC-62
  GI50: < 0.0075 µM (active)
DMS-114
  GI50: 0.0152 µM (active)
COLO 205
  GI50: 0.0136 µM (active)
KM12
  GI50: < 0.0075 µM (active)
HCT-15
  GI50: 0.0122 µM
DMS-273
  GI50: 0.00991 µM (active)
NCI-H522
  GI50: 0.0108 µM (active)
SR
  GI50: < 0.0075 µM (active)
OVCAR-4
  GI50: 1.03 µM (active)
K562
  GI50: < 0.0075 µM (active)
MOLT-4
  GI50: 0.0531 µM (active)
HOP-92
  GI50: 0.0377 µM (active)
UO-31
  GI50: 0.127 µM (active)
NCI-H23
  GI50: 0.0219 µM (active)
IGROV-1
  GI50: 0.164 µM (active)
M14
  GI50: 0.0175 µM (active)
OVCAR-3
  GI50: 0.0119 µM (active)
A498
  GI50: 0.0269 µM (active)
U-251
  GI50: < 0.0075 µM (active)
DLD-1
  GI50: 0.0196 µM (active)
SNB-75
  GI50: > 7.5 µM (inactive)
CAKI-1
  GI50: 0.0172 µM (active)
HCT-116
  GI50: < 0.0075 µM (active)
A549
  GI50: 0.0226 µM (active)
HCC 2998
  GI50: 0.0307 µM (active)
SK-MEL-2
  GI50: 0.0251 µM (active)
HOP-62
  GI50: 0.0175 µM (active)
SK-OV-3
  GI50: 0.0202 µM (active)
SK-MEL-5
  GI50: 0.0215 µM (active)
RXF 393
  GI50: < 0.0075 µM (active)
KM-20L2
  GI50: 0.0127 µM (active)
SW-620
  GI50: 0.00802 µM (active)
HL-60
  GI50: < 0.0075 µM (active)
SF-295
  GI50: < 0.0075 µM (active)
SNB-78
  GI50: 0.0206 µM (active)
M19-MEL
  GI50: 0.0218 µM (active)
786-0
  GI50: < 0.0075 µM (active)
NCI-H460
  GI50: 0.0103 µM (active)
CCRF-CEM
  GI50: 0.0132 µM (active)
OVCAR-5
  GI50: 2.94 µM (inactive)
LXFL 529
  GI50: 0.0266 µM (active)
NCI-H226
  GI50: 0.0413 µM (active)
SF-268
  GI50: 0.036 µM (active)

## COc1ccc(N2C(=O)[C@@H]3[C@H](C2=O)c2[nH]c4ccccc4c2C2CCC(C(C)(C)C)C[C@@H]23)cc1 (some centres not stated)
OVCAR-8
  GI50: 18 µM (inactive)
HT-29
  GI50: 29.2 µM (inactive)
RPMI-8226
  GI50: 22.4 µM (inactive)
LOX IMVI
  GI50: 22.8 µM (inactive)
SN12C
  GI50: 14 µM (inactive)
ACHN
  GI50: 24.3 µM (inactive)
Malme-3M
  GI50: 30.4 µM (inactive)
SK-MEL-28
  GI50: 34.4 µM (inactive)
TK-10
  GI50: 28 µM (inactive)
SF-539
  GI50: 22.9 µM (inactive)
SNB-19
  GI50: 22.1 µM (inactive)
UACC-62
  GI50: 19.1 µM (inactive)
COLO 205
  GI50: 24 µM (inactive)
KM12
  GI50: 38.7 µM (inactive)
HCT-15
  GI50: > 90.4 µM
DMS-273
  GI50: 41.8 µM (inactive)
XF498
  GI50: 44.8 µM (inactive)
NCI-H522
  GI50: 18.5 µM (inactive)
K562
  GI50: 14.5 µM (inactive)
MOLT-4
  GI50: 14.4 µM (inactive)
UO-31
  GI50: > 47.4 µM (inactive)
NCI-H23
  GI50: 22.4 µM (inactive)
IGROV-1
  GI50: 34.1 µM (inactive)
M14
  GI50: 29.2 µM (inactive)
OVCAR-3
  GI50: 21.5 µM (inactive)
A498
  GI50: 26 µM (inactive)
U-251
  GI50: 20.9 µM (inactive)
DLD-1
  GI50: 37.7 µM (inactive)
SNB-75
  GI50: 15.9 µM (inactive)
CAKI-1
  GI50: 27.7 µM (inactive)
HCT-116
  GI50: 30.5 µM (inactive)
A549
  GI50: 24.2 µM (inactive)
HCC 2998
  GI50: 29.5 µM (inactive)
SK-MEL-2
  GI50: 30.4 µM (inactive)
HOP-62
  GI50: 16.5 µM (inactive)
EKVX
  GI50: 28.4 µM (inactive)
UACC-257
  GI50: 40.6 µM (inactive)
SK-OV-3
  GI50: 18.6 µM (inactive)
SK-MEL-5
  GI50: 41.2 µM (inactive)
RXF 393
  GI50: 17.3 µM (inactive)
KM-20L2
  GI50: 61.9 µM (inactive)
SW-620
  GI50: 35.2 µM (inactive)
HL-60
  GI50: > 100 µM (inactive)
SF-295
  GI50: 12.3 µM (inactive)
SNB-78
  GI50: 23.7 µM (inactive)
M19-MEL
  GI50: 46.9 µM (inactive)
786-0
  GI50: 14.9 µM (inactive)
NCI-H460
  GI50: 25.2 µM (inactive)
CCRF-CEM
  GI50: 15.3 µM (inactive)
OVCAR-5
  GI50: > 100 µM (inactive)
LXFL 529
  GI50: 39.4 µM (inactive)
NCI-H226
  GI50: 22.3 µM (inactive)
SF-268
  GI50: 29.9 µM (inactive)
